Laboratory results from patent US20250034194A1, “INHIBITORS OF ABNORMAL PHOSPHORYLATION AND TAU PROTEIN AGGREGATION” (UNIVERSITE DE PICARDIE JULES VERNE, priority 2021, published 2025).

What was measured:
[1] = target: T1, tau protein (4R2N, 441 amino acids) (Homo sapiens, UniProt P10636); assay: In vitro abnormal tau phosphorylation by GSK3β, competition with heparin (western blot); format: biochemical
T1 construct: purchased Millipore (tau); Promega (GSK3β)
From the text: Phosphorylation of tau protein is the most common post-translational modification to regulate tau activity and functions. The longest tau isoform (4R2N, 441 amino acids) containing 85 potential phosphorylation sites was used. In vitro phosphorylation of the tau protein is done by induction, on the one hand, (FIG. 5) and, on the other hand, according to a competition process between the LG2A molecules and heparin, conventionally used to induce abnormal tau phosphorylation in vitro (FIGS. 3, 4, 6, 7, 8, 9 and 10).
For abnormal tau phosphorylation tests, GSK3p, a kinase centrally involved in this process in the brains of subjects with Alzheimer's disease (AD), was used. Analysis of tau phosphorylation by GSK3b at sites characteristic of AD is possible by the western blot technique using specific antibodies that recognize abnormally phosphorylated sites in the brain or cerebrospinal fluid of AD subjects, such as the AT270 antibody which recognizes threonine 181 (Thr181), the PHF1 antibody which recognizes serines 396 and 404 (Ser396/Ser404), and the AT8 antibody, which recognizes the Ser199/Ser202/Thr205 site.
By competition: The tau protein (40 μg/mL) is phosphorylated by the GSK3β enzyme at 4 ng/mL (Promega) in the presence of ATP (Sigma-Aldrich) at 48 μM and protease inhibitors (Sigma-Aldrich, 1/100), in the buffer mentioned above. The ability of the LG2A molecules (60 μg/mL) to compete with heparin (12 μg/mL; Sigma-Aldrich) is evaluated. Thus if the signal in the presence of the molecules is less than that obtained with heparin alone, the molecules are then defined as “protectors” from abnormal tau phosphorylation.
In both systems (induction or competition), the tau protein is incubated at 37° C. with stirring in the presence of the different elements presented above. The reaction kinetics are monitored by taking 8 μL of the samples at 1.5 h, 3 h and 6 h of incubation. Loading buffer (Euromedex) and β-mercaptoethanol (Sigma-Aldrich) are added to each sample. The samples are then stored at −20° C. until analysis by western blot.
After denaturation of the samples by heating at 95° C. for 5 minutes, the samples are deposited simultaneously with the molecular weight marker (Precision Plus Protein™ Dual Color Standards; BIO-RAD) on a 10% acrylamide gel placed in an electrophoresis tank containing migration buffer (0.25 M Tris; 1.6 M Glycine; […]; pH 8.6).
The controls used for this phosphorylation experiment followed by western blot are: • the “native tau” protein, that is to say the non-phosphorylated tau protein. • the tau protein phosphorylated by GSK3b alone in the absence of heparin. • the tau protein phosphorylated in the presence of heparin, denoted “tau+heparin”. • the “external standard” corresponding to the tau protein phosphorylated in the presence of heparin for 3 h. This standard is carried out in an experiment independently of the phosphorylation experiments in the presence of LG2A compounds. It ensures that the western blot is carried out correctly.
Then the membrane is incubated overnight with stirring at +4° C. in a solution of PBS, 0.1% Tween and 1% milk containing the primary antibody specific for tau phosphorylation sites (AT270, ThermoScientific or S199-202, Millipore).
After incubation of the PVDF membrane in the chosen primary antibody, a succession of 3 washes of 5 minutes of the membrane is carried out in PBS and 0.1% Tween with stirring and the membrane is incubated for 1 h with stirring at room temperature in a solution of 1×PBS, 0.1% Tween and 1% milk containing the diluted secondary antibody (Jackson Immuno-Research).

[2] = system: tau phosphorylation (S262 site) in cortical cells of rTg4510 mice (human tau P301L); assay: In cellulo tau phosphorylation test in cortical cells of rTg4510 mice; format: cell-based; conditions: 24 h
From the text: Cortical cells from rTg4510 mice mutated for human tau protein (P301 L) were used as a model of primary cells expressing a tauopathy without induction by an effector, unlike the previous cellular model (Santa Cruz et al., Science, 2005).
Cortical cells are extracted from mouse embryos expressing the P301L mutation at stage E16 and cultured in a 6-well plate. On day 14 (moderate tau phosphorylation) or day 18 (severe tau phosphorylation), cells extracted from the same embryo are placed in the presence of the Mal16diS molecule at different concentrations (0.1 or 1 μg/mL), in a final volume of 2 mL simultaneously with a well of cells from the same embryo not receiving molecules for 24 h. After 24 h of treatment with the molecules, the cells are rinsed with 1×PBS then lysed and recovered in RIPA buffer (Thermo Fischer). The protein extracts from the cells (10 μg) are then analysed by western blot according to the same procedure described above.
The tau phosphorylation site studied here is the S262 site (Thermo Fisher), normalized to the expression of total tau protein (K9JA, Dako). The bands are quantified using the Odyssey software of the LI-COR device allowing the p-tau/tau ratio to be calculated for each of the conditions. The ratio obtained for each concentration of molecule is then expressed as a percentage of the ratio obtained for cells not treated by the molecules. Thus a value less than 100% corresponds to protection provided by the molecules in this cellular model of expression of tau phosphorylation. The experiment was repeated at least three times for each dose of “Mal16diS” molecule. The mean and standard deviation of the replicates are shown in FIGS. 17 and 18; each of the values obtained for each dose is compared to that of the cells without addition of the molecule, with a t-test. Statistical differences with p-value <0.01 and <0.001 are represented by “**” and “***” respectively.

T1 sequence (P10636 1-441 isoform P10636-8): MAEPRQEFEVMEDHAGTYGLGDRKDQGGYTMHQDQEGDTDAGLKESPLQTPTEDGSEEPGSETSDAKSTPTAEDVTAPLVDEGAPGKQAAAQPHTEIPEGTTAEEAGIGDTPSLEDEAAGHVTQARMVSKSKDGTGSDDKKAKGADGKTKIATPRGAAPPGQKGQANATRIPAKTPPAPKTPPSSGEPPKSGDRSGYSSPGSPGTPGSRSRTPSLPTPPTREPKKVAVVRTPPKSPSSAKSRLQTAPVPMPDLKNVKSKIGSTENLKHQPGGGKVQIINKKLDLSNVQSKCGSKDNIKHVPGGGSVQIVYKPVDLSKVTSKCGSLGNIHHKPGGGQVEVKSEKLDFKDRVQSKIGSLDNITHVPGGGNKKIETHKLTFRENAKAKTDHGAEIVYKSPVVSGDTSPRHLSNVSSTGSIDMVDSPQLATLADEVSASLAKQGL

## CCCCCCCCCCCCCCCCNC(=O)[C@H](O)[C@@H](O)[C@H](O[C@H]1OC(COS(=O)(=O)[O-])[C@@H](O)C(O)[C@@H]1O)[C@H](O)COS(=O)(=O)[O-].[Na+].[Na+] (stereo partly drawn) [Mal16diS, N-Hexadecyl-6,6′-Di-O-Sulfo-D-Maltobioamide Disodium]
[1]; in presence of heparin, after 3 h of reaction
  abnormal phosphorylation of tau (p-tau) revealed by AT270 and Ser199/202 antibodies: inhibited
[1]; molecule 60 μg/mL vs heparin 12 μg/mL, 1.5 to 6 h of reaction, AT270, Ser199/202
  ability to compete with heparin for abnormal tau phosphorylation by GSK3β: total competition with heparin
[2]; moderate phosphorylation (D14), 0.1 μg/mL
  reduction in tau phosphorylation (S262, p-tau/tau) compared to untreated cells: 48%
[2]; moderate phosphorylation (D14), 1 μg/mL
  reduction in tau phosphorylation (S262, p-tau/tau) compared to untreated cells: 64%
[2]; severe phosphorylation (D18), 0.1 μg/mL
  reduction in tau phosphorylation (S262, p-tau/tau) compared to untreated cells: 39%
[2]; severe phosphorylation (D18), 1 μg/mL
  reduction in tau phosphorylation (S262, p-tau/tau) compared to untreated cells: 53%
